The source of these data is patent US9409915B2, “Substituted aza-bicyclic imidazole derivatives useful as TRPM8 receptor modulators” (Janssen Pharmaceutica NV, priority 2010, dated 2016).

SMILES strings stand for the structures. pIC50: −log10 of the molar value. Counter-ions that a name gives are not always drawn. Like-named read-outs stand apart in the source and are kept apart here.

The target in this test is canine TRPM8 (Canis lupus familiaris, UniProt Q1A7N1). Nature of the test: In vitro canine TRPM8 functional assay (Ca2+-sensitive fluorescent dye, icilin activation). Type of test: cell-based. As to the method: The functional activity of representative compounds of the formula (I) of the present invention was quantified by measuring changes in intracellular calcium concentration using a Ca^2+-sensitive fluorescent dye. The changes in fluorescent signal were monitored by a fluorescence plate reader, either a FLIPR™ (Molecular Devices) or FDSS (Hamamatsu).
Chain of canine TRPM8 (Q1A7N1 1-1104): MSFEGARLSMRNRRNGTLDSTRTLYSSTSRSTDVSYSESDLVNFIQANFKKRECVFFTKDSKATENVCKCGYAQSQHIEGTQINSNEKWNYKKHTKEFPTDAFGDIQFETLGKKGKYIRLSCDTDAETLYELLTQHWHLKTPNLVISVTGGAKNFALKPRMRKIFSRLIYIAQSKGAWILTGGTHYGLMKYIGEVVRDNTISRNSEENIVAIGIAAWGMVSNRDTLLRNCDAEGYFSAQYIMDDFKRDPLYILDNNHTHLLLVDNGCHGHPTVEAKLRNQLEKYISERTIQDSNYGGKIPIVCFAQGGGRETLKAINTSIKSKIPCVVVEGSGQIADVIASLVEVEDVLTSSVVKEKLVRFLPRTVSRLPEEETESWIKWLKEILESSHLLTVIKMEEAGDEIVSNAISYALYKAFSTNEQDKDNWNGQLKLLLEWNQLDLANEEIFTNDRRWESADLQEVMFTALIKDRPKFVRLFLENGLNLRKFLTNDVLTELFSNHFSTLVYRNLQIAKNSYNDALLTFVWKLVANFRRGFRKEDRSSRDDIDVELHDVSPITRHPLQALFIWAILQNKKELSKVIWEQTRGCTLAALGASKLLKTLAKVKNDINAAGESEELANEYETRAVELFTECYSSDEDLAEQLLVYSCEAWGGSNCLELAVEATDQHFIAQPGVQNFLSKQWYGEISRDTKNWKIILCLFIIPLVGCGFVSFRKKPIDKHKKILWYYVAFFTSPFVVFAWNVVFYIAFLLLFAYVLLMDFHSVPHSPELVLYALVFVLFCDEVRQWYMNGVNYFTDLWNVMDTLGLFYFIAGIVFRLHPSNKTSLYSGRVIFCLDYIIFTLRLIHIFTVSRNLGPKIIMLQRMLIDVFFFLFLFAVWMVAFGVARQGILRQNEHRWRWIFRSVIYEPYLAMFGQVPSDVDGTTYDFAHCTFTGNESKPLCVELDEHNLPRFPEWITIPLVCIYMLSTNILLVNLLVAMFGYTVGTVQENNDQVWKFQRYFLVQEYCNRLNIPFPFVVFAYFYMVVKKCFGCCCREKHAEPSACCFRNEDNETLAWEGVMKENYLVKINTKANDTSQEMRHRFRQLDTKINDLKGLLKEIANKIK
HEK293 cells stably expressing canine TRPM8 were routinely grown as monolayers in Dulbecco's minimum essential medium supplemented with 10% FBS, 2 mM L-glutamine, 100 units/mL penicillin, 100 ug/mL streptomycin and 400 μg/mL G418. Cells were maintained in 5% CO2 at 37° C. At 24 hr prior to assay, cells were seeded in black wall, clear-base poly-D-lysine coated 384-well plates (BD Biosciences, NJ, USA) at a density of 5,000 cells per well in culture medium and grown overnight in 5% CO2 at 37° C. On assay day, growth media was removed, and cells were loaded with Calcium 3 Dye (Molecular Devices) for 35 min at 37° C., under 5% CO2 and then incubated for 25 min at room temperature and atmosphere. Subsequently, cells were tested for agonist-induced increases in intracellular Ca^2+ levels using FLIPR™ or FDSS. Cells were treated with compounds of the formula (I) at varying concentrations and intracellular Ca^2+ was measured for 5 min prior to the addition of icilin to each well to achieve a final concentration that produces an approximately 80% maximal response.
Maximal fluorescence intensity (FI) achieved upon addition of icilin was exported from the FLIPR™ or FDSS software and further analyzed using GraphPad Prism 3.02 (Graph Pad Software Inc., CA, U.S.A.). Basal FI was subtracted prior to normalizing data to percent of maximal response. Curves were generated using the average of quadruplicate wells for each data point using nonlinear regression of either sigmoidal dose response or sigmoidal dose response (variable slope). Finally, the EC50 and IC50 values were calculated with the best-fit curve determined by GraphPad Prism

[1] abbreviates: HEK293, 0.2 μM compound, HEK293 cells stably expressing canine TRPM8, icilin-induced Ca2+ response.
Setting [2] is: HEK293 cells stably expressing canine TRPM8, icilin-induced Ca2+ response, eight-point concentration-response.
The mark [3] stands for this setting: 0.2 μM compound, HEK293 cells stably expressing canine TRPM8, icilin-induced Ca2+ response.

For orientation: pIC50 means −log10 of the IC50, conventionally taken in molar units. Higher therefore signals a low IC50. For `COc1nc(-c2ccccc2Cl)cc2nc(-c3c4c(nn3C)C3(CCCCC3)CC4)[nH]c12` [Compound 18, 2-(2-methyl-6,6-spirocyclohexyl-2,4,5,6-tetrahydro-cyclopenta-2H-pyrazol-3-yl)-4-methoxy-6-(2-chloro-phenyl)-3H-imidazo[4,5-c]pyridine], the “% Inh @ 0.2 μM” value came out at 99% and the pIC50 was 8.09.

The inhibition is how much of the control response was suppressed. High values mean a response far below the control, low ones a response near the control. Under setting [1], `Cn1nc(C(C)(C)C)c(Cl)c1-c1nc2cc(-c3ccccc3C(F)(F)F)nc(OCCN3CCCC3)c2[nH]1` [Compound 52, 2-(5-tert-Butyl-4-chloro-2-methyl-2H-pyrazol-3-yl)-4-(2-pyrrolidin-1-yl-ethoxy)-6-(2-trifluoromethyl-phenyl)-3H-imidazo[4,5-c]pyridine] yielded an inhibition at 0.2 µM of 80%. This molecule also showed a pIC50 under setting [2] of 7.10.

As to `CC(C)(C)c1cc(-c2nc3nc(-c4ccccc4OC(F)(F)F)ccc3[nH]2)on1` [Compound 29, 2-(3-tert-Butyl-isoxazole-5-yl)-5-(2-trifluoromethoxy-phenyl)-1H-imidazo[4,5-b]pyridine], at 0.2 µM the inhibition under setting [3] was 99%. This molecule gave a pIC50 under setting [2] of 7.48.

As to `CN1CCN(c2nc(-c3ccccc3C(F)(F)F)cc3nc(-c4c(C#N)c(C(C)(C)C)nn4C)[nH]c23)CC1` [Compound 24, 3-tert-Butyl-1-methyl-5-[4-(4-methyl-piperazin-1-yl)-6-(2-trifluoromethyl-phenyl)-3H-imidazo[4,5-c]pyridin-2-yl]-1H-pyrazole-4-carbonitrile methanesulfonic acid salt], the inhibition at 0.2 µM under setting [1] came out at 99%. This molecule had a negative logarithm of the IC50 (pIC50) under setting [2] of 8.13.

Molecule `Cn1nc(C(C)(C)C)c(C#N)c1-c1nc2cc(-c3ccccc3F)ncc2[nH]1` [Compound 44, 3-tert-Butyl-5-[6-(2-fluoro-phenyl)-3H-imidazo[4,5-c]pyridin-2-yl]-1-methyl-1H-pyrazole-4-carbonitrile hydrochloride] yielded an inhibition at 0.2 µM under setting [3] of 98%. Under setting [2], this molecule showed a pIC50 of 7.43.

Under setting [1], `Cn1nc(C(C)(C)C)c(Cl)c1-c1nc2cc(-c3ccccc3Cl)nc(OCC(=O)O)c2[nH]1` [Compound 87, [2-(5-tert-Butyl-4-chloro-2-methyl-2H-pyrazol-3-yl)-6-(2-chloro-phenyl)-3H-imidazo[4,5-c]pyridin-4-yloxy]-acetic acid] registered an inhibition at 0.2 µM of 72%. The pIC50 under setting [2] is 6.88.

Turning to `Cn1nc(C(C)(C)C)c(Cl)c1-c1nc2nc(-c3ccccc3C(F)(F)F)cc(C(F)(F)F)c2[nH]1` [Compound 1], the “% Inh @ 0.2 μM” value under setting [3] amounted to 99%. Also, the pIC50 under setting [2] is 7.57.

Under setting [3], `Cn1nc(C(C)(C)C)c(C#N)c1-c1nc2cc(-c3ccccc3)ncc2[nH]1` [Compound 47, 3-tert-Butyl-1-methyl-5-(6-phenyl-3H-imidazo[4,5-c]pyridin-2-yl)-1H-pyrazole-4-carbonitrile hydrochloride] gave an inhibition at 0.2 µM of 56%.

For the molecule `Cn1nc(C(C)(C)C)c(Cl)c1-c1nc2nc(-c3ccccc3OC(F)(F)F)ccc2[nH]1` [Compound 25, 2-(5-tert-Butyl-4-chloro-2-methyl-2H-pyrazol-3-yl)-5-(2-trifluoromethoxy-phenyl)-1H-imidazo[4,5-b]pyridine hydrochloride], under setting [1], the inhibition at 0.2 µM was 100%. The molecule further gave a pIC50 under setting [2] of 7.92.

Turning to `COc1nc(-c2ccccc2Cl)cc2nc(-c3nc(C(C)(C)C)cn3C)[nH]c12` [Compound 111, 2-(4-tert-Butyl-1-methyl-1H-imidazol-2-yl)-6-(2-chloro-phenyl)-4-methoxy-3H-imidazo[4,5-c]pyridine], under setting [3], the inhibition at 0.2 µM worked out at 62%.

In the case of `Cn1nc(C(C)(C)C)c(C#N)c1-c1nc2cc(-c3ccccc3C(F)(F)F)nc(Cl)c2[nH]1` [Compound 75, 3-tert-Butyl-5-[4-chloro-6-(2-trifluoromethyl-phenyl)-3H-imidazo[4,5-c]pyridin-2-yl]-1-methyl-1H-pyrazole-4-carbonitrile Hydrochloride], testing at 0.2 µM under setting [3] gave an inhibition of 100%. In addition, under setting [2], the negative logarithm of the IC50 (pIC50) was 7.62.

Molecule `Cn1nc(C(C)(C)C)c(Cl)c1-c1nc2cc(-c3ccccc3Cl)nc(OCCN3CCCC3)c2[nH]1` [Compound 51, 2-(5-tert-Butyl-4-chloro-2-methyl-2H-pyrazol-3-yl)-6-(2-chloro-phenyl)-4-(2-pyrrolidin-1-yl-ethoxy)-3H-imidazo[4,5-c]pyridine] displayed an inhibition at 0.2 µM under setting [3] of 88%. The molecule also showed a pIC50 under setting [2] of 7.14.

Regarding `COc1nc(-c2ccccc2C(F)(F)F)cc2nc(-c3c(Cl)c(C(C)(C)C)nn3C)[nH]c12` [Compound 9, 2-(5-tert-Butyl-4-chloro-2-methyl-2H-pyrazol-3-yl)-4-methoxy-6-(2-trifluoromethyl-phenyl)-3H-imidazo[4,5-c]pyridine methanesulfonic acid salt, hydrochloride], the inhibition at 0.2 µM under setting [3] is 100%.

For the molecule `COCCOc1cc(-c2ccccc2C(F)(F)F)nc2nc(-c3cc(C(C)(C)C)nn3C)[nH]c12` [Compound 112, 2-(5-tert-Butyl-2-methyl-2H-pyrazol-3-yl)-7-(2-methoxy-ethoxy)-5-(2-trifluoromethyl-phenyl)-1H-imidazo[4,5-b]pyridine methanesulfonic acid salt], the inhibition at 0.2 µM under setting [3] worked out at 98%. Under setting [2], the pIC50 is 7.72.

Take `Cn1nc(C(C)(C)C)c(Cl)c1-c1nc2nc(-c3ccccc3F)ccc2[nH]1` [Compound 33, 2-(5-tert-Butyl-4-chloro-2-methyl-2H-pyrazol-3-yl)-5-(2-fluoro-phenyl)-1H-imidazo[4,5-b]pyridine hydrochloride]: 0.2 µM produced 98% inhibition under setting [3]. Further, the pIC50 under setting [2] is 7.40.

In the case of `Cn1nc(C(C)(C)C)cc1-c1nc2nc(-c3ccccc3Cl)ccc2[nH]1` [Compound 27, 2-(5-tert-Butyl-2-methyl-2H-pyrazol-3-yl)-5-(2-chloro-phenyl)-1H-imidazo[4,5-b]pyridine], under setting [3], the inhibition at 0.2 µM is 73%. Under setting [2], this molecule gave a negative logarithm of the IC50 (pIC50) of 6.91.

Turning to `CN1CCN(CCOc2nc(-c3ccccc3C(F)(F)F)cc3nc(-c4c(Cl)c(C(C)(C)C)nn4C)[nH]c23)CC1` [Compound 50, 2-(5-tert-Butyl-4-chloro-2-methyl-2H-pyrazol-3-yl)-4-[2-(4-methyl-piperazin-1-yl)-ethoxy]-6-(2-trifluoromethyl-phenyl)-3H-imidazo[4,5-c]pyridine], under setting [3], testing at 0.2 µM gave an inhibition of 91%. Under setting [2], this molecule had a pIC50 of 7.25.

Molecule `Cn1nc(C(C)(C)C)c(Cl)c1-c1nc2cc(-c3ccccc3C(F)(F)F)nc(OCC(=O)O)c2[nH]1` [Compound 88, [2-(5-tert-Butyl-4-chloro-2-methyl-2H-pyrazol-3-yl)-6-(2-trifluoromethyl-phenyl)-3H-imidazo[4,5-c]pyridin-4-yloxy]-acetic acid] registered an inhibition at 0.2 µM under setting [3] of 36%.

As to `Cn1nc(C(C)(C)C)c(Cl)c1-c1nc2cc(-c3ccccc3Cl)nc(OCCN3CCOCC3)c2[nH]1` [Compound 54, 2-(5-tert-Butyl-4-chloro-2-methyl-2H-pyrazol-3-yl)-6-(2-chloro-phenyl)-4-(2-morpholin-4-yl-ethoxy)-3H-imidazo[4,5-c]pyridine], the inhibition at 0.2 µM under setting [3] turned out to be 99%. Further, the pIC50 under setting [2] was 8.38.

`Cn1nc(C(C)(C)C)c(Cl)c1-c1nc2nc(-c3ccccc3OC(F)(F)F)cnc2[nH]1` [Compound 94, 2-(5-tert-Butyl-4-chloro-2-methyl-2H-pyrazol-3-yl)-5-(2-trifluoromethoxy-phenyl)-1H-imidazo[4,5-b]pyrazine] displayed an inhibition at 0.2 µM under setting [3] of 99%. For the same molecule, the negative logarithm of the IC50 (pIC50) under setting [2] is 7.65.

Consider `Cn1nc(C(C)(C)C)c(C#N)c1-c1nc2cc(-c3ccccc3Cl)nc(OCC(=O)O)c2[nH]1` [Compound 85, [2-(5-tert-Butyl-4-cyano-2-methyl-2H-pyrazol-3-yl)-6-(2-chloro-phenyl)-3H-imidazo[4,5-c]pyridin-4-yloxy]-acetic acid], for which the inhibition at 0.2 µM under setting [3] came out at 32%.

Consider `Cn1nc2c(c1-c1nc3c(Cl)nc(-c4ccccc4C(F)(F)F)cc3[nH]1)CCC21CCCCC1` [Compound 72, 3′-{4-Chloro-6-[2-(trifluoromethyl)phenyl]-1H-imidazo[4,5-c]pyridin-2-yl}-2′-methyl-4′,5′-dihydro-2′H-spiro[cyclohexane-1,6′-cyclopenta[c]pyrazole] hydrochloride], for which, under setting [3], the inhibition at 0.2 µM was 95%. For the same molecule, the pIC50 under setting [2] is 7.20.

Under setting [1], `CN1CCN(CCOc2nc(-c3ccccc3Cl)cc3nc(-c4c(Cl)c(C(C)(C)C)nn4C)[nH]c23)CC1` [Compound 55, 2-(5-tert-Butyl-4-chloro-2-methyl-2H-pyrazol-3-yl)-6-(2-chloro-phenyl)-4-[2-(4-methyl-piperazin-1-yl)-ethoxy]-3H-imidazo[4,5-c]pyridine] returned an inhibition at 0.2 µM of 95%. Under setting [2], this molecule had a pIC50 of 7.27.
